The target of test [1] is peripheral benzodiazepine receptors (PBR) (Rattus norvegicus, UniProt P16257). The experiment in a line: PDSP radioligand binding at PBR. The source says: The compounds were also screened at PDSP to determine any binding with peripheral benzodiazepine receptors (PBR). A number of biological processes are associated with PBR. The most prevalent are transportation of anions for mitochondrial transmembrane potential, biosynthesis of heme, regulation of neurological damage, proliferation, cell death (apoptosis), as well as regulation of steroidogenesis. The test compounds were screened in the primary binding assay to determine the % inhibition at PBR. […] These compounds were then subjected to a secondary screening to determine the Ki (nM) value for PBR receptors.
peripheral benzodiazepine receptors (PBR), sequence (P16257 whole entry): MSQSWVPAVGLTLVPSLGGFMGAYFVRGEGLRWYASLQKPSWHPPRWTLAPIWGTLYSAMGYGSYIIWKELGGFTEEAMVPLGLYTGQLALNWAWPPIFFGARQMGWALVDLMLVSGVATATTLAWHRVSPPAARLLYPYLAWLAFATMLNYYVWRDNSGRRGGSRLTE
(§1) The NIMH PDSP assay protocol book [https://kidbdev.med.unc.edu/databases/PDSP%20Protocols%20II%202013-03-28.pdf accessed on 23 April 2023]. describes the protocols for primary and secondary radio-ligand binding assays. These assays were carried out in a final volume of 125 µL per well in the appropriate binding buffer.
(§2) The binding of a ligand to a receptor, ion channel, or transporter was determined in the […] of 10 µM of the appropriate reference compound. […] Plates were incubated in the dark for 90 min at rt, and the reactions were stopped by vacuum filtration onto 0.3% polyethyleneimine (PEI) soaked 96-well filter mats using a 96-well Filtermateharvester. This was followed by three washes with cold PBS buffer. Radioactivity was then counted on a Microbeta counter. Nonlinear regression was used to analyze the data with N = 6 replicates.

Another test addresses T1, 5-HT1B (Homo sapiens, UniProt P28222).
T1 construct: purchased NIMH Psychoactive Drug Screening Program (PDSP)
The experiment in a line: PDSP primary binding 5-HT1B. The note with it: 1.5 h; primary binding, 10,000 nM; last figure of the line = mean of the 4 before it; read-out: 5-HT1B, PDSP raw data, mean. Here is the method:
(§3) To determine if any off-target receptor-binding effects are present, all the novel ligands were sent to the National Institute of Mental Health (NIMH), Psychoactive Drug Screening Program (PDSP). The ligands were screened over a panel of 47 receptors, ion channels, and transporters to determine any other possible interactions with […]. The hERG-binding was also determined. […] No binding of the test compounds to calcium channels was observed. […] It is necessary to screen the compounds for hERG-binding during the early process of drug discovery. The unintentional binding of many drugs to hERG can cause blockade of hERG K+ channels in the heart, which can cause many side effects including cardiac arrhythmias and sudden death. […] All of the α5 imidazodiazepines were tested for hERG-binding.
as §1, §2

The target of another test is T2, 5-HT1E (Homo sapiens, UniProt P28566).
T2 construct: purchased NIMH Psychoactive Drug Screening Program (PDSP)
T2 sequence (P28566 whole entry): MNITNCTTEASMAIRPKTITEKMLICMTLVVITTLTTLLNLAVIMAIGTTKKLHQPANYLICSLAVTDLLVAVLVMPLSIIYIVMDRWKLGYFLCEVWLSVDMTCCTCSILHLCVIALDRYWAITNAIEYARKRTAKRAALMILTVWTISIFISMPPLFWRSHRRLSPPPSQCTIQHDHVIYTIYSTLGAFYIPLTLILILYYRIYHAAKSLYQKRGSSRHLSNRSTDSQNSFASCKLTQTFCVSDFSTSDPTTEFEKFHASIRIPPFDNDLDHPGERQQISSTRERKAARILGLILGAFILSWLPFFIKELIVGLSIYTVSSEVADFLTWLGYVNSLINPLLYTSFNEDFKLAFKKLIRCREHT
Briefly: PDSP primary binding 5-HT1E. The following applies: primary binding, 10,000 nM; last figure of the line = mean of the 4 before it. The procedure:
as §3, §1, §2

The target in a further test is T3, M3 (Homo sapiens, UniProt P20309).
T3 construct: purchased NIMH Psychoactive Drug Screening Program (PDSP)
T3 sequence (P20309 whole entry): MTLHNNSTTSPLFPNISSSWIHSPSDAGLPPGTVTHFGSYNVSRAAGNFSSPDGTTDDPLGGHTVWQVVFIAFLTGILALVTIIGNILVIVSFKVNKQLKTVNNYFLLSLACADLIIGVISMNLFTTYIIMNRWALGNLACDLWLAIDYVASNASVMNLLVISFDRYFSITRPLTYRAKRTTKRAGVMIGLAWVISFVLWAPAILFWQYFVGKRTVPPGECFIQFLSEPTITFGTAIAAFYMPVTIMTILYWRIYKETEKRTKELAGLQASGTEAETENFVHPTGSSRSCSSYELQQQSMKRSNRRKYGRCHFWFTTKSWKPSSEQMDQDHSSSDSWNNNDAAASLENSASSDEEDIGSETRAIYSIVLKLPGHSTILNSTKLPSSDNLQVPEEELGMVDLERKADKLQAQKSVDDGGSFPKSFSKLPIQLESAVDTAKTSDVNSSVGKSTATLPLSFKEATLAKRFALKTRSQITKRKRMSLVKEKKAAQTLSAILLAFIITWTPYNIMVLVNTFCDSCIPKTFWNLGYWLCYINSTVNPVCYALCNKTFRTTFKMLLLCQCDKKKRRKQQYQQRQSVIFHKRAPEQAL
Briefly: PDSP primary binding M3. The following applies: primary binding, 10,000 nM; last figure of the line = mean of the 4 before it; read-out: M3, PDSP raw data, mean. The procedure: as §3, §1, §2

The next test has as its target T4, M4 (Homo sapiens, UniProt P08173).
T4 construct: purchased NIMH Psychoactive Drug Screening Program (PDSP)
T4 sequence (P08173 1-479): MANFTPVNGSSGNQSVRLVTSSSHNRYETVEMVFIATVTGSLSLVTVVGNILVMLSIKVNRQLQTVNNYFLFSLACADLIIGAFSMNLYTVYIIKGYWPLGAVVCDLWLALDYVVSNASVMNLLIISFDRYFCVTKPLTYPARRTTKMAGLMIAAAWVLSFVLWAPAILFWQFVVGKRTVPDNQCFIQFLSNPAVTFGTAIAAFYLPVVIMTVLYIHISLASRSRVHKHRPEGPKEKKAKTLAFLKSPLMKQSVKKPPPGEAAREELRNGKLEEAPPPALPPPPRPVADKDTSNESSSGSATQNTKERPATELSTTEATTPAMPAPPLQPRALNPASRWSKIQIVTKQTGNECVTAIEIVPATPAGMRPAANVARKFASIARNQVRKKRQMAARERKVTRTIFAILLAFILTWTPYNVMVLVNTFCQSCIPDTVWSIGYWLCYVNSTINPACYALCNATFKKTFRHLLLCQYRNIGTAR
The experiment in a line: PDSP primary binding M4. The note with it: primary binding, 10,000 nM; last figure of the line = mean of the 4 before it; read-out: M4, PDSP raw data, mean. Here is the method:
as §3, §1, §2

The next test has as its target T5, Alpha4Beta2 (Rat Brain) (Rattus norvegicus, UniProt P09483+P12390).
T5 construct: purchased NIMH Psychoactive Drug Screening Program (PDSP)
The experiment in a line: PDSP primary binding Alpha4Beta2 (Rat Brain). The following applies: primary binding, 10,000 nM; last figure of the line = mean of the 4 before it; read-out: Alpha4Beta2 (Rat Brain), PDSP raw data, mean. The procedure:
as §3, §1, §2

Another test concerns the target T6, Alpha2A (Homo sapiens, UniProt P08913).
T6 construct: purchased NIMH Psychoactive Drug Screening Program (PDSP)
T6 sequence (P08913 1-465): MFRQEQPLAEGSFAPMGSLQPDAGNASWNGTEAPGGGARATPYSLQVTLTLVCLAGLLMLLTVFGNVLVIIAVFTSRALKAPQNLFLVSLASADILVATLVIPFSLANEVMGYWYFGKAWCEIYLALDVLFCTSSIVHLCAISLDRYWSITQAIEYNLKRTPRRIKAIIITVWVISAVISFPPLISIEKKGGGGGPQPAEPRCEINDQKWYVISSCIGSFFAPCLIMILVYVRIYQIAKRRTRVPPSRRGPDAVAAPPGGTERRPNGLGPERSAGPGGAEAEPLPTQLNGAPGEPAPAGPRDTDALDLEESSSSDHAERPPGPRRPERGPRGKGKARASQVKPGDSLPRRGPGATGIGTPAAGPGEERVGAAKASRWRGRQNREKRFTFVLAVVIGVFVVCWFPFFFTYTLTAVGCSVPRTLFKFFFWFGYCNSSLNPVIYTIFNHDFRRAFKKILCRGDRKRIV
The experiment in a line: PDSP primary binding Alpha2A. The note with it: 1.5 h; primary binding, 10,000 nM; last figure of the line = mean of the 4 before it; read-out: Alpha2A, PDSP raw data, mean. Here is the method: as §3, §1, §2

Where [2] appears, read: 1.5 h, primary binding, 10,000 nM, last figure of the line = mean of the 4 before it, some tables list PBR twice, read-out: PBR, PDSP raw data, mean.
[3] abbreviates: at 10,000 nM, N = 5, read-out: Binding Affinity at PBR % Inhibition (Primary).

Like-named read-outs stand apart in the source and are kept apart here.

T5 sequence (P09483 31-630): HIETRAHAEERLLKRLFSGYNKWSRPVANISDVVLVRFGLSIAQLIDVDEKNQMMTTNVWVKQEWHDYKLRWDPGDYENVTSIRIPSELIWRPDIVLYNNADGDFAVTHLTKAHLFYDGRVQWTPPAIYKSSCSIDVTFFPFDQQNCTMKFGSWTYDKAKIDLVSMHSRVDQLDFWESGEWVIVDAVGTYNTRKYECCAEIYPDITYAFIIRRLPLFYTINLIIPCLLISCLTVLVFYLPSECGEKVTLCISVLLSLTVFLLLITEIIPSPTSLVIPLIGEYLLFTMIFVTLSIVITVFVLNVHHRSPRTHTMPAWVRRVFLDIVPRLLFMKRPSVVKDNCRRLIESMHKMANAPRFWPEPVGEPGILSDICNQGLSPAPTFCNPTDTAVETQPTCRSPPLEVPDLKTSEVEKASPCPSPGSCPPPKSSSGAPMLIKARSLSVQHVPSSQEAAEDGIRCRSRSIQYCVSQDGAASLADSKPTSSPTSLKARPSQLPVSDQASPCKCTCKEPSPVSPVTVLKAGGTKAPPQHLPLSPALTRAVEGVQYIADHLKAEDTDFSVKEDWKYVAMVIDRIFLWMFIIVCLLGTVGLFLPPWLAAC
T5 sequence (P12390 25-500): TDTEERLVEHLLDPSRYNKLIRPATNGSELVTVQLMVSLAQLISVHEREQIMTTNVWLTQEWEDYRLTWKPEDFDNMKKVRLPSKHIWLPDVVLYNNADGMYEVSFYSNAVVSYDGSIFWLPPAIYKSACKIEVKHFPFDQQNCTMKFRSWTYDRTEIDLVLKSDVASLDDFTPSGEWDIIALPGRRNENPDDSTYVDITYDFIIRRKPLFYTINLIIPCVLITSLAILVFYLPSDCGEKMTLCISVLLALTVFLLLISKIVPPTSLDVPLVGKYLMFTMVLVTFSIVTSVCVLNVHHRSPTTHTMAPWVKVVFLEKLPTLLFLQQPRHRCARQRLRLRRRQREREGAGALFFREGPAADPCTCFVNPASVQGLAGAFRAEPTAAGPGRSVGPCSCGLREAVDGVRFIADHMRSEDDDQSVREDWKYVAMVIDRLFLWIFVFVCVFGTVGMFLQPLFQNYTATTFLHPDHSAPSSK
T1 sequence (P28222 whole entry): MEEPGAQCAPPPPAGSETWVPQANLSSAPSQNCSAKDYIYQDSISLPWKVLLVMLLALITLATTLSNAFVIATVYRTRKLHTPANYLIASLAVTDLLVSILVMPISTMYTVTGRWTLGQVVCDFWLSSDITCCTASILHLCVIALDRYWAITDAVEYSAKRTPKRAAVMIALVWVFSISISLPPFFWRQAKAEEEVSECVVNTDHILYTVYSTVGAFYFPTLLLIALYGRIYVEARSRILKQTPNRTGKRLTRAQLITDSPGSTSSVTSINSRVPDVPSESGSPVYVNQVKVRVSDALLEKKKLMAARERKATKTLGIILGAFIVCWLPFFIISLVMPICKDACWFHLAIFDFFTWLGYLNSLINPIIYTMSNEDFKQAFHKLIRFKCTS

Take `CCc1noc(-c2ncn3c2[C@@H](C)N=C(c2ccccc2F)c2cc(-c4ccccc4)ccc2-3)n1` [Compound 35, (R)-3-Ethyl-5-(6-(2′-fluorophenyl)-4-methyl-8-phenyl-4H-benzo[f]imidazo[1,5-a][1,4]diazepin-3-yl)-1,2,4-oxadiazole]: the inhibition at 10 µM in test [1] (setting [2]) is 71.8%; in test [1] (setting [3]), 71.8 ± 10.5%; on 5-HT1B it was 11.6%; at M3, 9.75%; at M4, -4.16%; on Alpha4Beta2 (Rat Brain) it was -11.6%. Also, at Alpha2A, the inhibition at 10 µM was found to be 34.5%. Besides, in test [1] (N = 2, read-out: Binding Affinity at PBR Ki (Secondary Screen)), the inhibition constant (Ki) was 1110 ± 24.5 nM. The “5-HT1E, PDSP raw data, mean” value at 5-HT1E is 5.88%.
For the compound `CCc1noc(-c2ncn3c2[C@@H](C)N=C(c2ccccc2F)c2cc(Cl)ccc2-3)n1` [Compound 36, (R)-5-(8-Chloro-6-(2′-fluorophenyl)-4-methyl-4H-benzo[f]imidazo[1,5-a][1,4]diazepin-3-yl)-3-ethyl-1,2,4-oxadiazole], the affinity in test [1] corresponds to a Ki of 982 ± 405 nM. Also, the inhibition at 10 µM in test [1] (setting [2]) is 57.2%; in test [1] (setting [3]) it was 57.2 ± 10.3%; at 5-HT1B it was 3.67%; at M3, -3.98%; at M4, -5.41%; at Alpha4Beta2 (Rat Brain) it was 3.25%. Also, the inhibition at 10 µM on Alpha2A is -14.4%. For the same compound, on 5-HT1E, the “5-HT1E, PDSP raw data, mean” value is 5.28%.
Take `CC(C)c1noc(-c2ncn3c2[C@@H](C)N=C(c2ccccc2F)c2cc(Cl)ccc2-3)n1` [Compound 37, (R)-5-(8-Chloro-6-(2′-fluorophenyl)-4-methyl-4H-benzo[f]imidazo[1,5-a][1,4]diazepin-3-yl)-3-isopropyl-1,2,4-oxadiazole]: the affinity in test [1], expressed as Ki, was 838 ± 135 nM. In addition, the inhibition at 10 µM in test [1] (setting [2]) is 89.6%; in test [1] (setting [3]), 88 ± 1.32%; at 5-HT1B, 10.4%; at M3, 15.6%; on M4, -4.01%; at Alpha4Beta2 (Rat Brain), -0.61%. For the same compound, the inhibition at 10 µM at Alpha2A was found to be 22.8%. The “5-HT1E, PDSP raw data, mean” value on 5-HT1E is -14.78%.
On to `C[C@H]1N=C(c2ccccc2F)c2cc(Cl)ccc2-n2cnc(-c3nc(C4CC4)no3)c21` [Compound 38, (R)-5-(8-Chloro-6-(2′-fluorophenyl)-4-methyl-4H-benzo[f]imidazo[1,5-a][1,4]diazepin-3-yl)-3-cyclopropyl-1,2,4-oxadiazole], for which the affinity in test [1], expressed as Ki, was 617 ± 27.1 nM. The inhibition at 10 µM in test [1] (setting [2]) is 89.5%; in test [1] (setting [3]), 90 ± 2.13%; on 5-HT1B, 8.75%; at M3, 19.3%; on M4 it was -8.66%; on Alpha4Beta2 (Rat Brain), 0.48%. The inhibition at 10 µM at Alpha2A was determined as 15.6%. Besides, the “5-HT1E, PDSP raw data, mean” value on 5-HT1E was -22.45%.
`CCc1noc(-c2ncn3c2CN=C(c2ccccc2F)c2cc(C4CC4)ccc2-3)n1` [Compound 44, 5-(8-Cyclopropyl-6-(2′-fluorophenyl)-4H-benzo[f]imidazo[1,5-a][1,4]diazepin-3-yl)-3-ethyl-1,2,4-oxadiazole]: the inhibition at 10 µM was 71% in test [1] (setting [2]); 62.1% at 5-HT1B; -0.6% on M3; -4.92% at M4; -0.99% at Alpha4Beta2 (Rat Brain); 14.4% at Alpha2A. The “5-HT1E, PDSP raw data, mean” value at 5-HT1E stood at 11.75%.
Consider `CCc1noc(-c2ncn3c2[C@@H](C)N=C(c2ccccc2F)c2cc(C4CC4)ccc2-3)n1` [Compound 46, (R)-5-(8-Cyclopropyl-6-(2′-fluorophenyl)-4-methyl-4H-benzo[f]imidazo[1,5-a][1,4]diazepin-3-yl)-3-ethyl-1,2,4-oxadiazole], for which the Ki in test [1] is 627.3 ± 5.72 nM. Besides, the inhibition at 10 µM in test [1] (setting [2]) is 86.4%; in test [1] (setting [3]), 86.4 ± 6.35%; at 5-HT1B, 15.1%; at M3 it was 8.95%; at M4, -0.8%; at Alpha4Beta2 (Rat Brain), -5.79%. Further, the inhibition at 10 µM at Alpha2A is 29.2%. For the same compound, the “5-HT1E, PDSP raw data, mean” value at 5-HT1E is -18.76%.
